The text below walks through data of US8765730B2 (Hoffmann-La Roche Inc, priority 2010, dated 2014).

SMILES strings stand for the structures.

One assay deals with T1, human GPBAR1 receptor (Homo sapiens, UniProt Q8TDU6).
T1 construct: expressed in transfected cells
T1 sequence (Q8TDU6 1-330): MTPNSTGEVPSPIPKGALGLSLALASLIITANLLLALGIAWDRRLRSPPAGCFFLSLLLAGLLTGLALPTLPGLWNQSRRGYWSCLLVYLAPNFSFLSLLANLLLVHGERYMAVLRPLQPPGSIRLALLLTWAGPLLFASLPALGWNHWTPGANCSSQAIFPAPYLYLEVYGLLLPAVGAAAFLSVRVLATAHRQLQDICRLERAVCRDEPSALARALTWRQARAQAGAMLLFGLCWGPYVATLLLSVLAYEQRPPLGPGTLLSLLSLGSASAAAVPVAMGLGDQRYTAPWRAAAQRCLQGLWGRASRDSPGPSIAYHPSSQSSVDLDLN
As to the kind of experiment: functional cAMP assay in CHO-dhfr(minus) cells expressing human GPBAR1 receptors. Particulars: functional cAMP assay, 30 min at 30° C., read-out: human EC50. It counts as cell-based. Summed up: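 Agonist cAMP read-out: stable GPBAR1 CHO-dhfr− clone, 30 min compound exposure at 30° C following 30 min IBMX (1 mM) preincubation in Krebs Ringer bicarbonate. Time-resolved energy-transfer detection gives EC50; parental CHO cells serve as counter-screen.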
(In general: Cyclic AMP is a second messenger, typically raised through Gs and lowered through Gi signalling.)
What is called EC50 is the midpoint of the concentration-response curve. Regarding `Cc1ccccc1[C@H](C/C(=N\O)c1cc(Br)c(=O)n(C)c1)c1ccc(Br)cc1` [Example 252, 3-Bromo-5-{(R)-3-(4-bromo-phenyl)-1-[(E)-hydroxyimino]-3-o-tolyl-propyl}-1-methyl-1H-pyridin-2-one], the EC50 worked out at 10 nM.
As for `COC(CCl)CNc1ccc([C@@H](C/C(=N\O)c2ccnc(C)c2)c2ccccc2C)cc1` (stereo partly drawn) [Example 357, (R)-3-[4-(3-Chloro-2-methoxy-propylamino)-phenyl]-1-(2-methyl-pyridin-4-yl)-3-o-tolyl-propan-1-one oxime], the EC50 turned out to be 91 nM.

Still in this assay, the particulars now being: human EC50, functional cAMP assay, 30 min at 30° C.
In turn, `Cn1cc(/C(CC(c2ccc(C(=O)N[C@H]3CC[C@H](O)CC3)c(F)c2)c2ccccc2Cl)=N/O)ccc1=O` (stereo partly drawn) [Example 217, Trans-4-[1-(2-Chloro-phenyl)-3-[(E)-hydroxyimino]-3-(1-methyl-6-oxo-1,6-dihydro-pyridin-3-yl)-propyl]-2-fluoro-N-(4-hydroxy-cyclohexyl)-benzamide] yielded an EC50 of 700 nM.
The same measure, in the same setting: with `Cc1cc(/C(CC(c2cccc(CC(=O)O)c2)c2ccccc2C)=N/O)ccn1` (centres unmarked) [Example 105, {3-[3-[(E)-Hydroxyimino]-3-(2-methyl-pyridin-4-yl)-1-o-tolyl-propyl]-phenyl}-acetic acid] the figure was 1020 nM; with `COC(=O)c1ccc(-c2ccc(C(CC(=NO)c3ccnc(C)c3)c3ccccc3C)cc2)cc1Cl` (racemic) [Example 83, 3-Chloro-4′-[3-[hydroxyimino]-3-(2-methyl-pyridin-4-yl)-1-o-tolyl-propyl]-biphenyl-4-carboxylic acid methyl ester], 455 nM.
Same read-out and setting: with `Cc1cc(/C(C[C@H](c2ccc([C@H]3CC[C@@H](C(=O)O)CC3)cc2)c2ccc(Cl)cc2C)=N/O)ccn1` [Example 505, cis-4-(4-((R,E)-1-(4-chloro-2-methylphenyl)-3-(hydroxyimino)-3-(2-methylpyridin-4-yl)propyl)phenyl)cyclohexanecarboxylic acid] the figure was 13 nM.
Same read-out and setting: with `Cc1cc(C(CC(c2ccc(-c3ccc(C(=O)O)c(Cl)c3)cc2)c2ccccc2C)=NO)ccn1` (racemic) [Example 84, 3-Chloro-4′-[3-[hydroxyimino]-3-(2-methyl-pyridin-4-yl)-1-o-tolyl-propyl]-biphenyl-4-carboxylic acid] the figure was 27 nM; with `CS(=O)(=O)c1cccc(-c2cccc(C(C/C(=N\O)c3ccncc3)c3ccccc3)c2)c1` (centres unmarked) [Example 23, (E)-3-(3′-Methanesulfonyl-biphenyl-3-yl)-3-phenyl-1-pyridin-4-yl-propan-1-one oxime], 492 nM; with `Cc1cc(/C(C[C@H](c2ccc(-c3ncco3)cc2)c2ccccc2C)=N/O)ccn1` [Example 423], 2 nM.
`Cc1cc(Cl)ccc1C(C/C(=N\O)c1ccc(=O)n(C)c1)c1ccc(S(C)(=O)=O)cc1` (single isomer, unassigned; (+)) [Example 334, (+)-(E)-5-(3-(4-chloro-2-methylphenyl)-1-(hydroxyimino)-3-(4-(methylsulfonyl)phenyl)-propyl)-1-methylpyridin-2(1H)-one] displayed an EC50 of 68 nM.
`Cc1cc(Cl)ccc1[C@@H](C/C(=N\O)c1ccc(=O)n(C)c1)c1ccc(-c2ccc(NS(C)(=O)=O)cc2)cc1` (single isomer, unassigned) [Example 416, (+)-N-{4′-[1-(4-Chloro-2-methyl-phenyl)-3-[(E)-hydroxyimino]-3-(1-methyl-6-oxo-1,6-dihydro-pyridin-3-yl)-propyl]-biphenyl-4-yl}-methanesulfonamide] showed a half-maximal effective concentration (EC50) of 18 nM.
Still for that read-out and setting: the figure for `Cn1cc(/C(C[C@@H](c2ccc(-c3ccc(C(=O)O)s3)cc2)c2ccc(Cl)cc2F)=N/O)ccc1=O` [Example 470, 5-{4-[(+)-1-(4-Chloro-2-fluoro-phenyl)-3-[(E)-hydroxyimino]-3-(1-methyl-6-oxo-1,6-dihydro-pyridin-3-yl)-propyl]-phenyl}-thiophene-2-carboxylic acid] is 61 nM; for `Cn1cc(/C(CC(c2ccc(F)cc2)c2ccc(Br)cc2)=N/O)ccc1=O` (centres unmarked) [Example 479, 5-{3-(4-Bromo-phenyl)-3-(4-fluoro-phenyl)-1-[(E)-hydroxyimino]-propyl}-1-methyl-1H-pyridin-2-one] it is 13 nM; for `O/N=C(\CC(c1ccccc1)c1cccc(Br)c1)c1ccncc1` (centres unmarked) [Example 12, (E)-3-(3-Bromo-phenyl)-3-phenyl-1-pyridin-4-yl-propan-1-one oxime] it is 92 nM.
In turn, `Cc1cc(/C(C[C@H](c2ccc(N3CCC(C(=O)O)CC3)cc2)c2ccc(Cl)cc2C)=N/O)ccn1` [Example 284, 1-{4-[(R)-1-(4-Chloro-2-methyl-phenyl)-3-[(E)-hydroxyimino]-3-(2-methyl-pyridin-4-yl)-propyl]-phenyl}-piperidine-4-carboxylic acid] registered an EC50 of 2 nM.
Same read-out and setting: with `Cc1cc(/C(C[C@H](c2ccc([C@H]3CC[C@@H](C(=O)O)CC3)cc2)c2ccccc2C)=N/O)ccn1` [Example 492, cis-4-{4-[(R)-3-[(E)-hydroxyimino]-3-(2-methyl-pyridin-4-yl)-1-o-tolyl-propyl]-phenyl}-cyclohexanecarboxylic acid] the figure was 18 nM; with `Cc1cc(/C(C[C@H](c2ccc(-c3ccc(C(=O)O)cc3)cc2)c2ccccc2C)=N/O)cc(C)n1` [Example 294, 4′-{(R)-3-(2,6-Dimethyl-pyridin-4-yl)-3-[(E)-hydroxyimino]-1-o-tolyl-propyl}-biphenyl-4-carboxylic acid], 21 nM; with `Cc1cc(Cl)ccc1C(C/C(=N\O)c1ccc(=O)n(C)c1)c1ccc(-c2ccc(C(=O)O)cc2)cc1` (centres unmarked) [Example 227, (E)-4′-(1-(4-Chloro-2-methylphenyl)-3-(hydroxyimino)-3-(1-methyl-6-oxo-1,6-dihydropyridin-3-yl)propyl)biphenyl-4-carboxylic acid], 55 nM.
Still for that read-out and setting: the figure for `Cc1cc(Cl)ccc1C(C/C(=N\O)c1ccc(=O)n(C)c1)c1ccc(-c2ccc(C#N)cc2)cc1` (centres unmarked) [Example 251, (E)-4′-(1-(4-Chloro-2-methylphenyl)-3-(hydroxyimino)-3-(1-methyl-6-oxo-1,6-dihydropyridin-3-yl)propyl)biphenyl-4-carbonitrile] is 480 nM.
The compound `Cc1cc(/C(C[C@H](c2ccc(C3=CCN(C(=O)OC(C)(C)C)CC3)cc2)c2ccccc2C)=N/O)ccn1` [Example 372, (R)-tert-Butyl 4-(4-(3-(hydroxyimino)-3-(2-methylpyridin-4-yl)-1-o-tolylpropyl)phenyl)-5,6-dihydropyridine-1(2H)-carboxylate] showed an EC50 of 134 nM.
On the same count and under the same terms, with `Cc1cc(/C(CC(c2ccc(Br)cc2)c2ccc(Cl)cc2C)=N/O)ccn1` (centres unmarked) [Example 138, (E)-3-(4-Bromophenyl)-3-(4-chloro-2-methylphenyl)-1-(2-methylpyridin-4-yl)propan-1-one oxime] the figure was 155 nM; with `Cc1cc(/C(C[C@@H](c2ccc(N3CCC(C(=O)O)CC3)cc2)c2ccc(Cl)cc2C)=N/O)ccn1` [Example 285, 1-{4-[(S)-1-(4-Chloro-2-methyl-phenyl)-3-[(E)-hydroxyimino]-3-(2-methyl-pyridin-4-yl)-propyl]-phenyl}-piperidine-4-carboxylic acid], 4 nM.
On the same count and under the same terms, with `Cc1cc(F)ccc1C(C/C(=N\O)c1ccc(=O)n(C)c1)c1ccc(-c2ccc(C(=O)NCC(=O)O)cc2)cc1` (centres unmarked) [Example 258, ({4′-[1-(4-Fluoro-2-methyl-phenyl)-3-[(E)-hydroxyimino]-3-(1-methyl-6-oxo-1,6-dihydro-pyridin-3-yl)-propyl]-biphenyl-4-carbonyl}-amino)-acetic acid] the figure was 10 nM.
In turn, `Cn1cc(/C(CC(c2ccc(-c3ccc(C(=O)O)cc3)cc2)c2ccc(F)cc2F)=N/O)ccc1=O` (centres unmarked) [Example 403, 4′-[1-(2,4-Difluoro-phenyl)-3-[(E)-hydroxyimino]-3-(1-methyl-6-oxo-1,6-dihydro-pyridin-3-yl)-propyl]-biphenyl-4-carboxylic acid] gave an EC50 of 138 nM.
Same read-out and setting: the figure for `Cc1cc(F)ccc1[C@H](C/C(=N\O)c1ccc(=O)n(C)c1)c1ccc(-c2ccc(S(N)(=O)=O)cc2)cc1` (single isomer, unassigned) [Example 406, (−)-4′-[1-(4-Fluoro-2-methyl-phenyl)-3-[(E)-hydroxyimino]-3-(1-methyl-6-oxo-1,6-dihydro-pyridin-3-yl)-propyl]-biphenyl-4-sulfonic acid amide] is 9 nM.
The same measure, in the same setting: the figure for `Cc1cc(/C(C[C@H](c2ccc(N3C[C@@H]4C(C(=O)O)[C@@H]4C3)cc2)c2ccc(F)cc2F)=N/O)ccn1` (single isomer, unassigned) [Example 429] is 2 nM.
`Cc1ccccc1C(C/C(=N\O)c1cc(F)cc(F)c1)c1ccc(-c2cncnc2)cc1` (centres unmarked) [Example 54, (E)-1-(3,5-Difluoro-phenyl)-3-(4-pyrimidin-5-yl-phenyl)-3-o-tolyl-propan-1-one oxime] showed an EC50 of 2580 nM.
The same measure, in the same setting: the figure for `COCCN(C)c1ccc(C(C/C(=N\O)c2ccncc2)c2ccccc2C)cc1` (centres unmarked) [Example 39, (E)-3-{4-[(2-Methoxy-ethyl)-methyl-amino]-phenyl}-1-pyridin-4-yl-3-o-tolyl-propan-1-one oxime] is 75 nM; for `Cc1ccccc1[C@H](C/C(=N\O)c1ccc(=O)n(C)c1)c1ccc(N2CCC(C(=O)O)CC2)cc1` [Example 497, Sodium (R,E)-1-(4-(3-(Hydroxyimino)-3-(1-methyl-6-oxo-1,6-dihydropyridin-3-yl)-1-o-tolylpropyl)phenyl)piperidine-4-carboxylate] it is 41 nM.
